# Laboratory results: patent US7074761B1, “Peptides and production and use thereof” (Takeda Chemical Ind., Ltd., priority 1996, dated 2006)
# Where a SMILES comes first, the peptide text is derived from it. Bridges are numbered along the chain shown (N, C = ends).
# Molecular target: T1, human SSTR5 (Homo sapiens, UniProt P35346)
# T1 construct: expressed in transfected cells; host or cells: CHO(dhfr-) cells, clone SSTR5-32-4, plasmid pA-1-11-SSTR5 (vector pAKKO-111)
# Experiment: [125I]-somatostatin binding inhibition, SSTR5 CHO cell membrane fraction
# Conditions: 25° C., 60 minutes
# Protocol: CHO(dhfr^−) cells (1×10^6 cells) were cultured on HAM F12 medium containing 10% fetal bovine serum in a dish with a diameter of 8 cm for 24 hours. Into these cells was introduced 10 μg of the human SSTR5 cDNA expression plasmid pA-1-11-SSTR5 obtained as described above in (2) by the calcium phosphate method (Cell Phect Transfection Kit; Pharmacia). At 24 hours after transfection, the medium was exchanged for DMEM containing 10% dialyzed fetal bovine serum, and cells forming a colony on this medium (namely DHFR^+ cells) were selected. Further, the cells selected were treated by the limiting dilution method for cloning from a single cell, and the cells thus cloned were measured for their somatostatin receptor protein expression ability by the binding assay described in Reference Example 1 (3). In this manner, a cell line with high somatostatin-binding activity. SSTR5-32-4, was selected. […]
# The membrane fractions prepared in Reference Example 6 were each diluted to 3 μg/ml with assay buffer. […] After filtration, the radioactivity of [^125I]-somatostatin remaining on the filter paper was measured. For each test substance, the binding inhibition percentage (%) was calculated according to the formula: PBM=(B−NSB)/(B0−NSB)×100 (where PBM: percent maximum binding; B: radioactivity when the test sample is added; B0: maximum bound radioactivity; NSB: non-specifically bound radioactivity). […]
# T1 sequence (P35346 whole entry): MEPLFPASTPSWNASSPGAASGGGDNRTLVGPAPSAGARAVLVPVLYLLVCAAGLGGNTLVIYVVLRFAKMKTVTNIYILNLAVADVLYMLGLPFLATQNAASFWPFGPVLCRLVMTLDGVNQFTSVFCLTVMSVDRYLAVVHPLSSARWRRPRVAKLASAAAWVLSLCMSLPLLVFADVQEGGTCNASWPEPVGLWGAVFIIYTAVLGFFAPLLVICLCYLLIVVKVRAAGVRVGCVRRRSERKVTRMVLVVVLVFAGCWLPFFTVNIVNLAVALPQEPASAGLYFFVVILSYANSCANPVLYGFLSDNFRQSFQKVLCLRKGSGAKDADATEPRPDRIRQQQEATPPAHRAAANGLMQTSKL
smiles,measurement,value
CSCC[C@H](N)C(=O)N1CCC[C@H]1C(=O)N[C@H]1CSSC[C@@H](C(=O)N[C@@H](CCCCN)C(=O)O)NC(=O)[C@H](CO)NC(=O)[C@H](CO)NC(=O)[C@H](Cc2ccccc2)NC(=O)[C@H]([C@@H](C)O)NC(=O)[C@H](CCCCN)NC(=O)[C@H](Cc2c[nH]c3ccccc23)NC(=O)[C@H](Cc2ccccc2)NC(=O)[C@H](Cc2ccccc2)NC(=O)[C@H](CC(N)=O)NC(=O)[C@H](CCCNC(=N)N)NC1=O [hCS-15] (H-MPCRNFFWKTFSSCK-OH; disulfide 3-14; N-terminus and C-terminus assumed),IC50,0.6 nM
